The results in this text go back to patent US8969406B2, “Use of compound for inhibiting glutathione s-transferase omega 1 activity and method for synthesizing the same” (China Medical University, priority 2013, dated 2015).

Data set [1] deals with human lung adenocarcinoma cell line (A549). Nature of the data set: In vitro cytotoxicity assay, cancer cell growth inhibition, A549 cell. The source says:
(§1) For evaluating the in vitro growth inhibitory concentrations ([…], μM) of the compound represented by Formula 1 of the present disclosure, human oralepithelial carcinoma cell line (KB), multidrug-resistant nasopharyngeal carcinoma cell line (KB-Vin), human lung adenocarcinoma cell line (A549), and prostate cancer cell line (DU145) were used in the following experiment. The GI50 values of Paclitaxel, an anticancer chemotherapy drug, were used as control.

In data set [2] the test system is human oralepithelial carcinoma cell line (KB). Nature of the data set: In vitro cytotoxicity assay, cancer cell growth inhibition, KB cell.
Text: as §1

The test system of data set [3] is multidrug-resistant nasopharyngeal carcinoma cell line (KB-Vin). Nature of the data set: In vitro cytotoxicity assay, cancer cell growth inhibition, KB-Vin cell.
Text: as §1

In data set [4] the test system is prostate cancer cell line (DU145). Put plainly: In vitro cytotoxicity assay, cancer cell growth inhibition, DU145 cell.
Text: as §1

Data set [5] addresses T1, GSTO1 (Homo sapiens, UniProt P78417).
T1 sequence (P78417 1-241): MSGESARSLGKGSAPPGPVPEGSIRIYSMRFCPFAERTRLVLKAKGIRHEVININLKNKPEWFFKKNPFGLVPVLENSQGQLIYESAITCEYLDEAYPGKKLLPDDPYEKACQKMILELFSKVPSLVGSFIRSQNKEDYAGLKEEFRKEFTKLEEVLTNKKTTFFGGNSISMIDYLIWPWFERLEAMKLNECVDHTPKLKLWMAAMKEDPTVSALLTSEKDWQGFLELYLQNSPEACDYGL
Nature of the data set: Enzyme activity assay of GST omega 1 (GSTO1) with 4NPG substrate. It counts as biochemical. As to conditions: 2 nM GSTO1, 0.5 mM 4NPG, 30 min 25° C. pre-reaction, O.D.305. The method, then:
First, 100 μl mixture having 2 nM GSTO1, 100 mM Tris (pH 8.0), 1.5 mM EDTA, and 10 mM 2-mercaptoethanol were added into each well of an UV-penetrable 96-well culture plate. Besides, 100 μl buffer having 100 mM Tris (pH 8.0), 1.5 mM EDTA, and 10 mM 2-mercaptoethanol were used as blank control.
Then, 4NPG were added to each of the aforementioned mixture to a final concentration of 0.5 mM.

The mark [6] stands for this setting: Homo sapiens, A549, read-out: In vitro cytotoxicity assay: GI50 (μM) A549 cell.
The mark [7] stands for this setting: Homo sapiens, DU-145, read-out: In vitro cytotoxicity assay: GI50 (μM) DU145 cell.
[8] abbreviates: read-out: In vitro cytotoxicity assay: GI50 (μM) A549 cell, A549 cell.
Setting [9] is: read-out: In vitro cytotoxicity assay: GI50 (μM) DU145 cell, DU145 cell.

Where two headings read alike, the source gives them in different places.

As usually defined, the GI50 is the concentration giving 50% growth inhibition. On to `O=C1C=CC(O)(c2cc(=O)c3c(ccc4ccccc43)o2)C=C1` [Compound main structure], for which the values for the GI50 in data set [1] (setting [6]) and in data set [4] (setting [7]) were 0.763 µM and 0.799 µM, respectively. The “In vitro cytotoxicity assay: GI50 (μM) KB cell” value in data set [2] (KB cell) was 0.865 µM. Also, the “In vitro cytotoxicity assay: GI50 (μM) KB-Vin cell” value in data set [3] (KB-Vin cell) came out at 0.674 µM.
`O=C1C=CC(O)(c2cc(=O)c3c(ccc4cc(OC(=O)N5CCCCC5)ccc43)o2)C=C1` [side chain No. 7]: the concentration for 50% growth inhibition (GI50) was found to be 0.536 µM in data set [1] and 0.522 µM in data set [4]. Further, the “In vitro cytotoxicity assay: GI50 (μM) KB cell” value in data set [2] was 0.615 µM. Besides, the “In vitro cytotoxicity assay: GI50 (μM) KB-Vin cell” value in data set [3] amounted to 0.619 µM.
The matching figures for `CCN(CC)CCOc1ccc2c(ccc3oc(C4(O)C=CC(=O)C=C4)cc(=O)c32)c1` [side chain No. 15]: 0.551 µM, 0.685 µM, 0.644 µM and 1.325 µM.
Consider `O=C1C=CC(O)(c2cc(=O)c3c(O)cc(O)cc3o2)C=C1` [compound A], for which, in data set [5], the “inhibitory effect against GSTO1 enzyme activity (competition with 4NPG, FIG. 1)” value was “slight”.
Regarding `CCC(C)CCCC(C)CCOc1ccc2c(ccc3oc(C4(O)C=CC(=O)C=C4)cc(=O)c32)c1` (centres unmarked) [side chain No. 13], the 50% growth inhibitory concentration (GI50) in data set [1] is 4.27 µM; in data set [4] it was 1.26 µM. Besides, in data set [2], the “In vitro cytotoxicity assay: GI50 (μM) KB cell” value amounted to 1.115 µM. Further, in data set [3], the “In vitro cytotoxicity assay: GI50 (μM) KB-Vin cell” value came out at 1.883 µM.
Turning to `CC(=O)O[C@H]1C(=O)[C@@]2(C)[C@H]([C@H](OC(=O)c3ccccc3)[C@]3(O)C[C@H](OC(=O)[C@H](O)[C@@H](NC(=O)c4ccccc4)c4ccccc4)C(C)=C1C3(C)C)[C@]1(OC(C)=O)CO[C@@H]1C[C@@H]2O` [Paclitaxel, reference compound], the concentration for 50% growth inhibition (GI50) in data set [1] (Homo sapiens, A549, read-out: GI50 A549 cell (control)) is 0.00356 µM; in data set [4] (Homo sapiens, DU-145, read-out: GI50 DU145 cell (control)), 0.003 µM. For the same molecule, the “GI50 KB cell (control)” value in data set [2] (KB cell) came out at 4.64 nM. Besides, the “GI50 KB-Vin cell (control)” value in data set [3] (KB-Vin cell) was greater than 1000 nM.
As to `O=C1C=CC(O)(c2cc(=O)c3c(ccc4cc(O)ccc43)o2)C=C1` [side chain No. 19], the GI50 in data set [1] (setting [8]) turned out to be 0.806 µM; in data set [4] (setting [9]), 0.709 µM. For the same molecule, the “In vitro cytotoxicity assay: GI50 (μM) KB cell” value in data set [2] (KB cell) is 0.944 µM. In addition, the “In vitro cytotoxicity assay: GI50 (μM) KB-Vin cell” value in data set [3] (KB-Vin cell) was determined as 0.738 µM.
Take `CC(C)CCOc1ccc2c(ccc3oc(C4(O)C=CC(=O)C=C4)cc(=O)c32)c1` [side chain No. 11]: the figures for the 50% growth inhibitory concentration (GI50) in data set [1] (setting [6]) and in data set [4] (setting [7]) were 0.382 µM and 0.231 µM, respectively. Besides, the “In vitro cytotoxicity assay: GI50 (μM) KB cell” value in data set [2] (KB cell) was determined as 0.2 µM. For the same molecule, the “In vitro cytotoxicity assay: GI50 (μM) KB-Vin cell” value in data set [3] (KB-Vin cell) turned out to be 0.269 µM.
As for `CC(C)N(CCOc1ccc2c(ccc3oc(C4(O)C=CC(=O)C=C4)cc(=O)c32)c1)C(C)C` [side chain No. 16], the GI50 in data set [1] was 0.584 µM; in data set [4], 0.62 µM. Further, the “In vitro cytotoxicity assay: GI50 (μM) KB cell” value in data set [2] came out at 0.55 µM. For the same molecule, the “In vitro cytotoxicity assay: GI50 (μM) KB-Vin cell” value in data set [3] was found to be 0.682 µM.
Regarding `COCOc1ccc2c(ccc3oc(C4(O)C=CC(=O)C=C4)cc(=O)c32)c1` [side chain No. 10], the GI50 in data set [1] (setting [8]) was determined as 0.819 µM; in data set [4] (setting [9]) it was 0.865 µM. The “In vitro cytotoxicity assay: GI50 (μM) KB cell” value in data set [2] (KB cell) turned out to be 0.786 µM. The “In vitro cytotoxicity assay: GI50 (μM) KB-Vin cell” value in data set [3] (KB-Vin cell) is 0.766 µM.
With `O=C1C=CC(O)(c2cc(=O)c3c(ccc4cc(OCCN5CCCC5)ccc43)o2)C=C1` [side chain No. 18], the figures for the 50% growth inhibitory concentration (GI50) in data set [1] and in data set [4] were 0.628 µM and 0.693 µM, respectively. Besides, in data set [2], the “In vitro cytotoxicity assay: GI50 (μM) KB cell” value was determined as 0.552 µM. Besides, in data set [3], the “In vitro cytotoxicity assay: GI50 (μM) KB-Vin cell” value was determined as 1.108 µM.
With `O=C1C=CC(O)(c2cc(=O)c3c(ccc4cc(OC(=O)N5CCOCC5)ccc43)o2)C=C1` [side chain No. 6], the GI50 amounted to 0.603 µM in data set [1] and 0.617 µM in data set [4]. Moreover, the “In vitro cytotoxicity assay: GI50 (μM) KB cell” value in data set [2] is 0.607 µM. Further, the “In vitro cytotoxicity assay: GI50 (μM) KB-Vin cell” value in data set [3] was found to be 0.64 µM.
On to `CN(C)CCOc1ccc2c(ccc3oc(C4(O)C=CC(=O)C=C4)cc(=O)c32)c1` [side chain No. 14], for which the GI50 in data set [1] (setting [8]) was 0.754 µM; in data set [4] (setting [9]), 0.808 µM. Also, the “In vitro cytotoxicity assay: GI50 (μM) KB cell” value in data set [2] (KB cell) was 0.683 µM. The “In vitro cytotoxicity assay: GI50 (μM) KB-Vin cell” value in data set [3] (KB-Vin cell) amounted to 0.841 µM.
With `COc1ccc2c(ccc3oc(C4(O)C=CC(=O)C=C4)cc(=O)c32)c1` [side chain No. 8], the GI50 worked out at 0.811 µM in data set [1] (setting [8]) and 0.707 µM in data set [4] (setting [9]). The “In vitro cytotoxicity assay: GI50 (μM) KB cell” value in data set [2] (KB cell) worked out at 0.871 µM. Besides, the “In vitro cytotoxicity assay: GI50 (μM) KB-Vin cell” value in data set [3] (KB-Vin cell) turned out to be 0.692 µM.
For the molecule `COc1ccc2c(ccc3oc(C4(O)C=CC(=O)C=C4)cc(=O)c32)c1` [compound B], the “inhibitory effect against GSTO1 enzyme activity (competition with 4NPG, FIG. 1)” value in data set [5] was “slight”.
For `O=C1C=CC(O)(c2cc(=O)c3c(ccc4cc(OCCN5CCCCC5)ccc43)o2)C=C1` [side chain No. 17], the GI50 was determined as 0.483 µM in data set [1] and 0.541 µM in data set [4]. Further, the “In vitro cytotoxicity assay: GI50 (μM) KB cell” value in data set [2] is 0.499 µM. In addition, the “In vitro cytotoxicity assay: GI50 (μM) KB-Vin cell” value in data set [3] stood at 0.675 µM.
In the case of `CC(C)CCCC(C)CCOc1ccc2c(ccc3oc(C4(O)C=CC(=O)C=C4)cc(=O)c32)c1` (centres unmarked) [side chain No. 12], the GI50 turned out to be 0.233 µM in data set [1] (setting [6]) and 0.065 µM in data set [4] (setting [7]). Besides, in data set [2] (KB cell), the “In vitro cytotoxicity assay: GI50 (μM) KB cell” value stood at 0.067 µM. In addition, the “In vitro cytotoxicity assay: GI50 (μM) KB-Vin cell” value in data set [3] (KB-Vin cell) came out at 0.335 µM.
